Source: PMC8800111 (The Journal of Biological Chemistry, 2021)

How the values were obtained:
Assay type in all cases: cell-based
[1] = biological target: proteins of U3A human fibrosarcoma cells (4462 proteins detected) (Homo sapiens, UniProt Q15084); settings: protein PDIA6; U3A cells
[2] = biological target: proteins of U3A human fibrosarcoma cells (4462 proteins detected) (Homo sapiens, UniProt P10809); settings: protein HSPD1; U3A, 10 μM, 2 h
[3] = biological target: proteins of U3A human fibrosarcoma cells (4462 proteins detected) (Homo sapiens, UniProt Q9UJX6); settings: protein ANAPC2; soluble abundance after heat, U3A cells
proteins of U3A human fibrosarcoma cells (4462 proteins detected) (Homo sapiens, UniProt Q9UJX6), sequence (Q9UJX6 whole entry): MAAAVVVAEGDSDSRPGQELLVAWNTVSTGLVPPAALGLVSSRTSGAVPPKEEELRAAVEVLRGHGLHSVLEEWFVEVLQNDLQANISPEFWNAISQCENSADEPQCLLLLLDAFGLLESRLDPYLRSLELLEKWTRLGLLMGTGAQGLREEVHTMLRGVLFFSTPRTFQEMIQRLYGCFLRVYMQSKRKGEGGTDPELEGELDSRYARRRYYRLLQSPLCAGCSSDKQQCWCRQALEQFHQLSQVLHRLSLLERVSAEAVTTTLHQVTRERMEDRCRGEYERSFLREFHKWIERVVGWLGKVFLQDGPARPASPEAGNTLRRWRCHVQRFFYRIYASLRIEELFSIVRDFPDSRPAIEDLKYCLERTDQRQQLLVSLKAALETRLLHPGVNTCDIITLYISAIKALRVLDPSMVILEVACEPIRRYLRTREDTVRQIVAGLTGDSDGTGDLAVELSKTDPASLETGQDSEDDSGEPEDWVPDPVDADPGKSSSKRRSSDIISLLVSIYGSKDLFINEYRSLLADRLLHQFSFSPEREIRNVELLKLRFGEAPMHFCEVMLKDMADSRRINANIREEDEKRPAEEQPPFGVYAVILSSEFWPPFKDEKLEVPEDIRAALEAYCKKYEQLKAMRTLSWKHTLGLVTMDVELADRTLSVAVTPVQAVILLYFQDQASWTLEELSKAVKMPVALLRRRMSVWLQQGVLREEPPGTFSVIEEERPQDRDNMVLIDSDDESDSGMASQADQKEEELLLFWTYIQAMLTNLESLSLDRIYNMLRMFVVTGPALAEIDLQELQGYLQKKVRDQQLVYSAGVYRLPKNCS

[4] = biological target: proteins of U3A human fibrosarcoma cells (4462 proteins detected) (Homo sapiens, UniProt Q9UL15); settings: protein BAG5; U3A cells
[5] = biological target: proteins of U3A human fibrosarcoma cells (4462 proteins detected) (Homo sapiens, UniProt Q9UJU6); settings: protein DBNL, U3A cells
[6] = biological target: proteins of U3A human fibrosarcoma cells (4462 proteins detected) (Homo sapiens, UniProt Q9H8H0); settings: protein NOL11; soluble abundance after heat, U3A cells
[7] = biological target: proteins of U3A human fibrosarcoma cells (4462 proteins detected) (Homo sapiens, UniProt Q99661); settings: protein KIF2C; U3A cells
[8] = biological target: proteins of U3A human fibrosarcoma cells (4462 proteins detected) (Homo sapiens, UniProt Q9NS91); settings: protein RAD18; U3A cells
proteins of U3A human fibrosarcoma cells (4462 proteins detected) (Homo sapiens, UniProt Q9NS91), sequence (Q9NS91 whole entry): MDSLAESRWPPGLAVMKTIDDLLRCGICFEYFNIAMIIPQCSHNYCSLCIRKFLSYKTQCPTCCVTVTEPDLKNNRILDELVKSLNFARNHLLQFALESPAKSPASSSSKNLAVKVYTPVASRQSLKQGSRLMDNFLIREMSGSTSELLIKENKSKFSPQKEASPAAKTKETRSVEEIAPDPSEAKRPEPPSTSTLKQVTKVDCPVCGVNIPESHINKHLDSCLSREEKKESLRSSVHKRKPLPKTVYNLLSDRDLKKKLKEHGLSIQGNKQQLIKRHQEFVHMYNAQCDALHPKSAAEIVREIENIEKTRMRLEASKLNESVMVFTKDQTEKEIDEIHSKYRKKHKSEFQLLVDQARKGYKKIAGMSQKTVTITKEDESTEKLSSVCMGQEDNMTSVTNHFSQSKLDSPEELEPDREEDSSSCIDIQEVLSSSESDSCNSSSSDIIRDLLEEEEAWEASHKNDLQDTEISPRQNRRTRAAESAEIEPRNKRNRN

[9] = biological target: proteins of U3A human fibrosarcoma cells (4462 proteins detected) (Homo sapiens, UniProt Q16610); settings: protein ECM1; U3A, 10 μM, 2 h
[10] = biological target: proteins of U3A human fibrosarcoma cells (4462 proteins detected) (Homo sapiens, UniProt O00159); settings: protein MYO1C, U3A cells
proteins of U3A human fibrosarcoma cells (4462 proteins detected) (Homo sapiens, UniProt O00159), sequence (O00159 whole entry): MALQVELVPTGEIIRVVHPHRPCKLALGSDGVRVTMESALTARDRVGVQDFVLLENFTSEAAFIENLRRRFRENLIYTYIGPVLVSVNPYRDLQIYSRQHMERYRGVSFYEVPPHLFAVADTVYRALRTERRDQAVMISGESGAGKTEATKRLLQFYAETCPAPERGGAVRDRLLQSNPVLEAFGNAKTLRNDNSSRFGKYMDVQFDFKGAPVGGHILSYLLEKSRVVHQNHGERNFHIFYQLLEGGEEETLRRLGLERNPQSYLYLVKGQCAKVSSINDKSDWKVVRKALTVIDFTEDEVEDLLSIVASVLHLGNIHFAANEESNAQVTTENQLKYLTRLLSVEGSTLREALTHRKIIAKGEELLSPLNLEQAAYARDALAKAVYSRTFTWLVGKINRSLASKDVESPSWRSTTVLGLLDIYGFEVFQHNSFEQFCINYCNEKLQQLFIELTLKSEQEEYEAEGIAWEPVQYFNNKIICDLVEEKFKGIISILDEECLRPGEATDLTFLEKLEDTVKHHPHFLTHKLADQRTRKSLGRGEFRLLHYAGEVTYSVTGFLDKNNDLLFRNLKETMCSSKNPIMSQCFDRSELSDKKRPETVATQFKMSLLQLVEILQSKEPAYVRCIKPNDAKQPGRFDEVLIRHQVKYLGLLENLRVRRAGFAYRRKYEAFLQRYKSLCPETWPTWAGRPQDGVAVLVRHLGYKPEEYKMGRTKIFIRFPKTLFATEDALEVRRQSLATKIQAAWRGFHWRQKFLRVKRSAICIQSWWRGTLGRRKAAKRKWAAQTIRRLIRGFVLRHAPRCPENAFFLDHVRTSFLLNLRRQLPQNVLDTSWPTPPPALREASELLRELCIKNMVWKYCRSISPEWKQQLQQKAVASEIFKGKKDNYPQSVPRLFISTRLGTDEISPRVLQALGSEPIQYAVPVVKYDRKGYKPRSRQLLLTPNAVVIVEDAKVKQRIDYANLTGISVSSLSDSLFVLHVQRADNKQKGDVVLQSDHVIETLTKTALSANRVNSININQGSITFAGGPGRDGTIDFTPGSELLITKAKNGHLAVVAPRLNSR

[11] = biological target: proteins of U3A human fibrosarcoma cells (4462 proteins detected) (Homo sapiens, UniProt O75635); settings: protein SERPINB7; U3A, 10 μM, 2 h
proteins of U3A human fibrosarcoma cells (4462 proteins detected) (Homo sapiens, UniProt O75635), sequence (O75635 whole entry): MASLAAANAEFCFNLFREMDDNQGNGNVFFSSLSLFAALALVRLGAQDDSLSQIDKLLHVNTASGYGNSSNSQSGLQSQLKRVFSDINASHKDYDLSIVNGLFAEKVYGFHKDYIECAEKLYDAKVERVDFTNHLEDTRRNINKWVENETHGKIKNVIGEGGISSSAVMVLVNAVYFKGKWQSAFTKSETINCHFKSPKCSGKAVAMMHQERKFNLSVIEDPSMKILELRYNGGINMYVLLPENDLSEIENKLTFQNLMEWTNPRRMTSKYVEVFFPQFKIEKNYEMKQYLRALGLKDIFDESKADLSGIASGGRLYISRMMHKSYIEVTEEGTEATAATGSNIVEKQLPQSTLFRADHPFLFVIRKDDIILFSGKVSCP

[12] = biological target: proteins of U3A human fibrosarcoma cells (4462 proteins detected) (Homo sapiens, UniProt O15498); settings: protein YKT6; U3A, 10 μM, 2 h
[13] = biological target: proteins of U3A human fibrosarcoma cells (4462 proteins detected) (Homo sapiens, UniProt Q8N129); settings: protein CNPY4, U3A cells
[14] = biological target: proteins of U3A human fibrosarcoma cells (4462 proteins detected) (Homo sapiens, UniProt Q14651); settings: protein PLS1; U3A cells
[15] = biological target: proteins of U3A human fibrosarcoma cells (4462 proteins detected) (Homo sapiens, UniProt O75643); settings: protein SNRNP200; soluble abundance after heat, U3A cells
[16] = biological target: proteins of U3A human fibrosarcoma cells (4462 proteins detected) (Homo sapiens, UniProt P14854); settings: protein COX6B1, U3A cells
[17] = biological target: proteins of U3A human fibrosarcoma cells (4462 proteins detected) (Homo sapiens, UniProt Q9NXW2); settings: protein DNAJB12; soluble abundance after heat, U3A cells
proteins of U3A human fibrosarcoma cells (4462 proteins detected) (Homo sapiens, UniProt Q9NXW2), sequence (Q9NXW2 whole entry): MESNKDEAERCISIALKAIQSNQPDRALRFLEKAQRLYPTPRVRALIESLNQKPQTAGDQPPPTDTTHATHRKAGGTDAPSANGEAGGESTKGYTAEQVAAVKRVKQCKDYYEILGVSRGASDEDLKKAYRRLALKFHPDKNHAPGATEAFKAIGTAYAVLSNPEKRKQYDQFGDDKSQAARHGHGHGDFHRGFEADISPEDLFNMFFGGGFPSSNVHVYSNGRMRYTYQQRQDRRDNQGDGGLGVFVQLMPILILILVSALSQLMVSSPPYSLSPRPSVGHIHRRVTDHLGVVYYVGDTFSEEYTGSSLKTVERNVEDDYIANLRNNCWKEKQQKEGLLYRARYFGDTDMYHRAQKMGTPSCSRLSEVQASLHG

[18] = biological target: proteins of U3A human fibrosarcoma cells (4462 proteins detected) (Homo sapiens, UniProt O95487); settings: protein SEC24B, U3A cells
[19] = biological target: proteins of U3A human fibrosarcoma cells (4462 proteins detected) (Homo sapiens, UniProt Q13829); settings: protein TNFAIP1; U3A cells
proteins of U3A human fibrosarcoma cells (4462 proteins detected) (Homo sapiens, UniProt Q13829), sequence (Q13829 whole entry): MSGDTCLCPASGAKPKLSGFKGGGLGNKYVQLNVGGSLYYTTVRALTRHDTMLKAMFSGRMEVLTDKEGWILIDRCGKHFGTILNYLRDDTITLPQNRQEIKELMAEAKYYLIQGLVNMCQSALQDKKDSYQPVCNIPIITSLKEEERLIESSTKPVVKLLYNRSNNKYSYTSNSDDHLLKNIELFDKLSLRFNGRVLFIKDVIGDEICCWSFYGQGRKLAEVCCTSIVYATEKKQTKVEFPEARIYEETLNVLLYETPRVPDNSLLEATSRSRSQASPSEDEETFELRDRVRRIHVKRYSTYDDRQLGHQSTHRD

[20] = biological target: proteins of U3A human fibrosarcoma cells (4462 proteins detected) (Homo sapiens, UniProt P62993); settings: protein GRB2, U3A cells
[21] = biological target: proteins of U3A human fibrosarcoma cells (4462 proteins detected) (Homo sapiens, UniProt P17252); settings: protein PRKCA; U3A cells
[22] = biological target: proteins of U3A human fibrosarcoma cells (4462 proteins detected) (Homo sapiens, UniProt Q12805); settings: protein EFEMP1; U3A cells
[23] = biological target: proteins of U3A human fibrosarcoma cells (4462 proteins detected) (Homo sapiens, UniProt Q05397); settings: protein PTK2; U3A cells
[24] = biological target: proteins of U3A human fibrosarcoma cells (4462 proteins detected) (Homo sapiens, UniProt Q8NDC0); settings: protein MAPK1IP1L; U3A cells
[25] = biological target: proteins of U3A human fibrosarcoma cells (4462 proteins detected) (Homo sapiens, UniProt Q9HCD5); settings: protein NCOA5; U3A cells
proteins of U3A human fibrosarcoma cells (4462 proteins detected) (Homo sapiens, UniProt Q9HCD5), sequence (Q9HCD5 whole entry): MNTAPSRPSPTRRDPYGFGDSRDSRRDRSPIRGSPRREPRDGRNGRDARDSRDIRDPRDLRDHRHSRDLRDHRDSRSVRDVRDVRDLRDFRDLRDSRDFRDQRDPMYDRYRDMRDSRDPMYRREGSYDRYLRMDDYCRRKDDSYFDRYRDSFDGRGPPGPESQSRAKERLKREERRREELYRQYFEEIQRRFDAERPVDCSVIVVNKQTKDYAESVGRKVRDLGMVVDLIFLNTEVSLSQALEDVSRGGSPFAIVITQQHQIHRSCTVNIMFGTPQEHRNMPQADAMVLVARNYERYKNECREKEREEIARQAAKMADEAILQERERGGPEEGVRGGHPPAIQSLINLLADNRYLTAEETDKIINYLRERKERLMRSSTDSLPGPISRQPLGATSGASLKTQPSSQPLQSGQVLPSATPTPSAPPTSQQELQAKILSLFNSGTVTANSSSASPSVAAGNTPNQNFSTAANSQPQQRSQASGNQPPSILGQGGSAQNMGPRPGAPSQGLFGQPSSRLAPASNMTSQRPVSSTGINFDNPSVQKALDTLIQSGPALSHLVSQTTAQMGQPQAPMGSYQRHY

[26] = biological target: proteins of U3A human fibrosarcoma cells (4462 proteins detected) (Homo sapiens, UniProt Q75QN2); settings: protein INTS8; U3A cells
[27] = biological target: proteins of U3A human fibrosarcoma cells (4462 proteins detected) (Homo sapiens, UniProt Q9NXR8); settings: protein ING3, U3A cells
[28] = biological target: proteins of U3A human fibrosarcoma cells (4462 proteins detected) (Homo sapiens, UniProt Q9GZT3); settings: protein SLIRP, U3A cells
[29] = biological target: proteins of U3A human fibrosarcoma cells (4462 proteins detected) (Homo sapiens, UniProt Q5T4S7); settings: protein UBR4; soluble abundance after heat, U3A cells
[30] = biological target: proteins of U3A human fibrosarcoma cells (4462 proteins detected) (Homo sapiens, UniProt Q5T2R2); settings: protein PDSS1; U3A cells

proteins of U3A human fibrosarcoma cells (4462 proteins detected) (Homo sapiens, UniProt Q15084), sequence (Q15084 20-440): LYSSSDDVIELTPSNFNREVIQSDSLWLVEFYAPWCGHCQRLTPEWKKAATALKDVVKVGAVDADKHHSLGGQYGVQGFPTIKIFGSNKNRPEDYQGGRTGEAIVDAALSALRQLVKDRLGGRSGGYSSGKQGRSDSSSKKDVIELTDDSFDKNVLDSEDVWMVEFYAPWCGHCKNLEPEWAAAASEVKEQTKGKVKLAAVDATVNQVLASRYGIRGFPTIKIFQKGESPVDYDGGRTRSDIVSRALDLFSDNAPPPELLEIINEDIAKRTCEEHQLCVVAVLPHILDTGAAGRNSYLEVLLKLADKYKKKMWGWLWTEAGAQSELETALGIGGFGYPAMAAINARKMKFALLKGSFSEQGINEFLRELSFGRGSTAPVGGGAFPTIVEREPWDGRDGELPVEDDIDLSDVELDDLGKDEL
proteins of U3A human fibrosarcoma cells (4462 proteins detected) (Homo sapiens, UniProt P10809), sequence (P10809 27-573): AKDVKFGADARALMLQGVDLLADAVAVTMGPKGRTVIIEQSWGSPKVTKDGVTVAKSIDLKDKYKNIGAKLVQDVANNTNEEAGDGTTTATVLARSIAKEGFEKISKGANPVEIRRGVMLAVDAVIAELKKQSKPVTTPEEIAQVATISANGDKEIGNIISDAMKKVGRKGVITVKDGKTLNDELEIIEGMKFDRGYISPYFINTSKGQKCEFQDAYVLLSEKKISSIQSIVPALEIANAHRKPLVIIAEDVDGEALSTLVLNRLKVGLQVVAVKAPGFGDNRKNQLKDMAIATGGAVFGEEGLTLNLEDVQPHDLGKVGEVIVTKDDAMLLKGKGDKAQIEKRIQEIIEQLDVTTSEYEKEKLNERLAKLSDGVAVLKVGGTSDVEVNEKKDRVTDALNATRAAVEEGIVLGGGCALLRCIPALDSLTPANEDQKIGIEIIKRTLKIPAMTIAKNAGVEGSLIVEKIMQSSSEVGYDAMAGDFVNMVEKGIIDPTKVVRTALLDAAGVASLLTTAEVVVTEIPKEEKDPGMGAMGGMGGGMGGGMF

## CCc1nc(N)nc(N)c1-c1ccc(Cl)cc1 [pyrimethamine]
[1]
  Log2 (PYR/DMSO): 0.16
[2]
  Log2 (PYR/DMSO), HSPD1: 0.35
[3]
  Log2 (PYR/DMSO): 0.14
[4]
  Log2 (PYR/DMSO): 0.16
[5]
  Log2 (PYR/DMSO): -0.04
[6]
  Log2 (PYR/DMSO): 0.14
[7]
  Log2 (PYR/DMSO): 0.17
[8]
  Log2 (PYR/DMSO): 0.17
[9]
  Log2 (PYR/DMSO), ECM1: -0.14
[10]
  Log2 (PYR/DMSO): -0.03
[11]
  Log2 (PYR/DMSO), SERPINB7: -0.19
[12]
  Log2 (PYR/DMSO), YKT6: 0.27
[13]
  Log2 (PYR/DMSO): -0.04
[14]
  Log2 (PYR/DMSO): 0.17
[15]
  Log2 (PYR/DMSO): 0.15
[16]
  Log2 (PYR/DMSO): -0.04
[17]
  Log2 (PYR/DMSO): 0.15
[18]
  Log2 (PYR/DMSO): -0.04
[19]
  Log2 (PYR/DMSO): 0.21
[20]
  Log2 (PYR/DMSO): -0.04
[21]
  Log2 (PYR/DMSO): 0.16
[22]
  Log2 (PYR/DMSO): 0.18
[23]
  Log2 (PYR/DMSO): 0.16
[24]
  Log2 (PYR/DMSO): 0.22
[25]
  Log2 (PYR/DMSO): 0.17
[26]
  Log2 (PYR/DMSO): 0.18
[27]
  Log2 (PYR/DMSO): -0.04
[28]
  Log2 (PYR/DMSO): -0.04
[29]
  Log2 (PYR/DMSO): 0.14
[30]
  Log2 (PYR/DMSO): 0.20
